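A five-concentration, 48-hour dose response in 96-well plates underlies each endpoint, interpolated linearly between surrounding concentrations. At the GI50, growth is halved.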 Activity calls are given as the source filed them. No stated cut-off is given here; in the data, active = GI50 up to about 1.1 µM and inactive = higher.
How the values were obtained:
Test in all cases: growth of human tumour cells (NCI), 48 h
SK-MEL-2 = test system: SK-MEL-2
A498 = test system: A498
IGROV-1 = test system: IGROV-1
K562 = test system: K562
SK-MEL-28 = test system: SK-MEL-28
KM12 = test system: KM12
OVCAR-8 = test system: OVCAR-8
OVCAR-3 = test system: OVCAR-3
HCC 2998 = test system: HCC 2998
HL-60 = test system: HL-60
CAKI-1 = test system: CAKI-1
HCT-15 = test system: HCT-15
OVCAR-4 = test system: OVCAR-4
MCF7 = test system: MCF7
HT-29 = test system: HT-29
SF-268 = test system: SF-268
TK-10 = test system: TK-10
NCI/ADR-RES = test system: NCI/ADR-RES
SN12C = test system: SN12C
LOX IMVI = test system: LOX IMVI

Compound | GI50 (SK-MEL-2) | GI50 (A498) | GI50 (IGROV-1) | GI50 (K562) | GI50 (SK-MEL-28) | GI50 (KM12) | GI50 (OVCAR-8) | GI50 (OVCAR-3) | GI50 (HCC 2998) | GI50 (HL-60) | GI50 (CAKI-1) | GI50 (HCT-15) | GI50 (OVCAR-4) | GI50 (MCF7) | GI50 (HT-29) | GI50 (SF-268) | GI50 (TK-10) | GI50 (NCI/ADR-RES) | GI50 (SN12C) | GI50 (LOX IMVI)
O=C(O)CSc1ccc([N+](=O)[O-])cc1[N+](=O)[O-] | > 100 µM (inactive) | > 100 µM (inactive) | > 100 µM (inactive) | > 100 µM (inactive) | > 100 µM (inactive) | > 100 µM (inactive) | > 100 µM (inactive) | > 100 µM (inactive) | > 100 µM (inactive) | > 100 µM (inactive) | > 100 µM (inactive) | > 100 µM | > 100 µM (inactive) | > 100 µM (inactive) | > 100 µM (inactive) | > 100 µM (inactive) | > 100 µM (inactive) | > 100 µM (inactive) | > 100 µM (inactive) | > 100 µM (inactive)
COc1ccc2c(c1)OCCc1cn[nH]c1-2 | 29.4 µM (inactive) | 28.6 µM (inactive) | 23.4 µM (inactive) | 41.3 µM (inactive) | > 100 µM (inactive) | 38.9 µM (inactive) | 55.6 µM (inactive) | 29 µM (inactive) | 83.4 µM (inactive) | 13.3 µM (inactive) | < 0.01 µM (active) | 35.2 µM | 48.6 µM (inactive) | 26.7 µM (inactive) | 34.8 µM (inactive) | 59.4 µM (inactive) |  | 35.3 µM (inactive) | 38.6 µM (inactive) | 31.3 µM (inactive)
CSc1nc(Br)nc2ncn(C3CC(Oc4ccc(C)cc4)C(COc4ccc(C)cc4)O3)c12 (stereo not given) | > 100 µM (inactive) | > 100 µM (inactive) | > 100 µM (inactive) |  | > 100 µM (inactive) | > 100 µM (inactive) | 80.7 µM (inactive) | > 100 µM (inactive) | > 100 µM (inactive) | > 100 µM (inactive) | 66.2 µM (inactive) | > 100 µM | > 100 µM (inactive) | > 100 µM (inactive) | > 100 µM (inactive) | > 100 µM (inactive) | > 100 µM (inactive) | > 100 µM (inactive) | > 100 µM (inactive) | > 100 µM (inactive)
NCCNc1ccc(NCCN)c2c1C(=O)c1c(O)ccc(O)c1C2=O | 0.44 µM (active) | 0.0818 µM (active) | 0.0873 µM (active) |  | 1.07 µM (active) | 0.118 µM (active) | 0.0158 µM (active) | 0.486 µM (active) | 0.423 µM (active) | 0.0407 µM (active) | 0.00711 µM (active) | 0.161 µM | 0.207 µM (active) | 0.00731 µM (active) | 0.0659 µM (active) | 0.00721 µM (active) | 0.428 µM (active) | 0.192 µM (active) | 0.00483 µM (active) | 0.007 µM (active)
c1ccc(CSCCC(SCc2ccccc2)SCc2ccccc2)cc1 | > 10 µM (inactive) | > 10 µM (inactive) | > 10 µM (inactive) | > 10 µM (inactive) | > 10 µM (inactive) | > 10 µM (inactive) | > 10 µM (inactive) | > 10 µM (inactive) | > 10 µM (inactive) | > 10 µM (inactive) | > 10 µM (inactive) | > 10 µM | > 10 µM (inactive) | > 10 µM (inactive) | > 10 µM (inactive) | > 10 µM (inactive) | > 10 µM (inactive) | > 10 µM (inactive) | > 10 µM (inactive) | > 10 µM (inactive)
O=CC1OC(=O)c2cc(O)c(O)c(O)c2-c2c(cc(O)c(O)c2O)C(=O)OC1C(O)C(O)CO (stereo not given) | 15.4 µM (inactive) | > 100 µM (inactive) | > 100 µM (inactive) | 21.1 µM (inactive) | 83.4 µM (inactive) | 41.5 µM (inactive) | 19.8 µM (inactive) | 71 µM (inactive) | > 100 µM (inactive) | 35.4 µM (inactive) | 19.1 µM (inactive) | 69.2 µM | 17.4 µM (inactive) | 19.1 µM (inactive) | 22 µM (inactive) | > 100 µM (inactive) | 19.5 µM (inactive) | 76.9 µM (inactive) | 28.5 µM (inactive) | 15.4 µM (inactive)
C=CC(O)(CBr)CCC(Br)C(=C)C (stereo not given) | > 10 µM (inactive) | > 10 µM (inactive) | > 10 µM (inactive) | > 10 µM (inactive) | > 10 µM (inactive) | > 10 µM (inactive) | > 10 µM (inactive) | > 10 µM (inactive) | > 10 µM (inactive) | > 10 µM (inactive) | > 10 µM (inactive) | > 10 µM | > 10 µM (inactive) | > 10 µM (inactive) | > 10 µM (inactive) | > 10 µM (inactive) | > 10 µM (inactive) | > 10 µM (inactive) | > 10 µM (inactive) | > 10 µM (inactive)
Cc1cc(S(=O)(=O)/N=C(\NN)NCC(=O)NN)c(S)cc1Cl | > 10 µM (inactive) | > 10 µM (inactive) | > 10 µM (inactive) | > 10 µM (inactive) | > 10 µM (inactive) | > 10 µM (inactive) | > 10 µM (inactive) | > 10 µM (inactive) | 8.73 µM (inactive) | > 10 µM (inactive) | > 10 µM (inactive) | > 10 µM | > 10 µM (inactive) | > 10 µM (inactive) | > 10 µM (inactive) | > 10 µM (inactive) | > 10 µM (inactive) | > 10 µM (inactive) | > 10 µM (inactive) | > 10 µM (inactive)
COC(=O)[C@]12CC[C@H]3CN(S(=O)(=O)c4ccc(C)cc4)[C@H]([C@H]31)[C@H](c1ccco1)N2S(=O)(=O)c1ccc(C)cc1 | 29.2 µM (inactive) | 53.2 µM (inactive) | 35.8 µM (inactive) | 30.2 µM (inactive) | 51.4 µM (inactive) | 32.9 µM (inactive) | 27.8 µM (inactive) | 56.2 µM (inactive) | 78.2 µM (inactive) | 30.2 µM (inactive) | 38.1 µM (inactive) | 34 µM | 27.7 µM (inactive) | 32.2 µM (inactive) | 38.8 µM (inactive) | 42.3 µM (inactive) | 56.5 µM (inactive) | 29 µM (inactive) | 37.6 µM (inactive) | 34.7 µM (inactive)
COc1cc(OC)c2c(c1)OC(c1cccnc1)C(c1ccccc1)C2=O (stereo not given) | 34.4 µM (inactive) | > 100 µM (inactive) | > 100 µM (inactive) | > 100 µM (inactive) | > 100 µM (inactive) | > 100 µM (inactive) | 59.3 µM (inactive) | 86.3 µM (inactive) | > 100 µM (inactive) | > 100 µM (inactive) | 74.8 µM (inactive) | > 100 µM | 80.2 µM (inactive) | > 100 µM (inactive) | > 100 µM (inactive) | > 100 µM (inactive) | > 100 µM (inactive) | 72.1 µM (inactive) | > 100 µM (inactive) | > 100 µM (inactive)
C=C1C(=O)O[C@H]2[C@H]3O[C@@H](C[C@@H]12)[C@@]1(C)CC[C@H](O1)[C@H](C)CCC[C@H]3C | 2.09 µM (inactive) | 1.71 µM (inactive) | 1.19 µM (inactive) | 1.44 µM (inactive) | 1.63 µM (inactive) | 2.18 µM (inactive) | 1.38 µM (inactive) | 1.1 µM (active) | 1.28 µM (inactive) | 0.237 µM (active) | 1.28 µM (inactive) | 1.81 µM | 1.58 µM (inactive) | 1.77 µM (inactive) | 1.29 µM (inactive) | 1.67 µM (inactive) | 1.62 µM (inactive) | 1.53 µM (inactive) | 2.22 µM (inactive) | 1.55 µM (inactive)
O/N=C1/CC2(N3CCOCC3)C3CC/C(=N\O)C2CC1(Cc1ccccc1)C3 (stereo not given) | > 100 µM (inactive) | > 100 µM (inactive) | > 100 µM (inactive) | 74 µM (inactive) | > 100 µM (inactive) | > 100 µM (inactive) | > 100 µM (inactive) | > 100 µM (inactive) | > 100 µM (inactive) | 67 µM (inactive) | > 100 µM (inactive) | > 100 µM | > 100 µM (inactive) | 66.4 µM (inactive) | 95.9 µM (inactive) | > 100 µM (inactive) |  | > 100 µM (inactive) | > 100 µM (inactive) | > 100 µM (inactive)
C=CCOC1OC(CS(=O)(=O)O)C(OC(C)=O)C(OC(C)=O)C1OC(C)=O (stereo not given) | > 100 µM (inactive) | > 100 µM (inactive) | > 100 µM (inactive) | 38.1 µM (inactive) | > 100 µM (inactive) | > 100 µM (inactive) | > 100 µM (inactive) | > 100 µM (inactive) | > 100 µM (inactive) | > 100 µM (inactive) | > 100 µM (inactive) | > 100 µM | > 100 µM (inactive) | > 100 µM (inactive) | > 100 µM (inactive) |  | > 100 µM (inactive) | > 100 µM (inactive) | > 100 µM (inactive) | > 100 µM (inactive)
O=c1oc2cc(O)ccc2cc1-c1nc2ccccc2o1 | 21.9 µM (inactive) | 29.2 µM (inactive) | 29.1 µM (inactive) | 30.4 µM (inactive) | 43.5 µM (inactive) | 25.8 µM (inactive) | 34.8 µM (inactive) | 19.1 µM (inactive) | 39.8 µM (inactive) | 23.8 µM (inactive) | 44 µM (inactive) | 34.4 µM | 29.8 µM (inactive) | 32.8 µM (inactive) | 33.7 µM (inactive) | 32.2 µM (inactive) | 37 µM (inactive) | 36.4 µM (inactive) | 49.7 µM (inactive) | 44.4 µM (inactive)
